Source: patent US11945807B2, “Splicing modulator antibody-drug conjugates and methods of use” (EISAI R&D MANAGEMENT CO., LTD., priority 2018, dated 2024)
Read-outs that look alike come from different tables or passages of the source.

Legend:
N87 cells = experiment: Cell viability CellTiter-Glo, N87; assay type: cell-based, human; details: unconjugated payload of the ADC; for GI50: Homo sapiens
Method: (§1) HCC1954 (American Type Culture Collection (ATCC)) breast ductal carcinoma cells were plated at 2000 cells/well in flat bottom 96-well tissue culture plates (Corning) in a total volume of 90 μL tissue culture medium supplemented with 10% fetal bovine serum (ThermoFisher Scientific). Cells were treated with a 3-fold serial dilution of compound from 200 nM to 0.03 nM. Each concentration was tested in triplicate. At the time of treatment, a plate of untreated cells was evaluated using CellTiter-Glo®2.0 Luminescent Cell Viability Assay according to the manufacturers recommendations (Promega; #G9241). CellTiter-Glo® 2.0 reagent was added to the medium, incubated, and assayed on an EnVision Multilabel Reader (PerkinElmer). Values represent time zero (T0). […] Percentage growth inhibition was calculated as: [(T144−T0)/(C−T0)]×100 for concentrations for which T144>/=T0 or [(T144−T0)/T0]×100 for concentrations for which T144<T0. The dose response curve plots were generated using Prism 7 (Graphpad) and fit using nonlinear regression analysis and the log(inhibitor) versus response-variable slope (four parameters).
(§2) HCC1954 (ATCC), 2000 cells/well), N87 (ATCC, 4000 cells/well), SKBR3 (ATCC, 3000 cells/well), and MCF7 (ATCC, 1500 cells/well) cell lines were used.

PC3 cells = experiment: Cell viability CellTiter-Glo, PC3 (EPHA2-expressing); assay type: cell-based; details: for GI50: Homo sapiens, PC-3, free payload of the ADC; for Payload Rmin (%): free payload of the ADC
Method: as §1
(§3) Anti-CD138 ADCs were tested in the CD138-expressing MOLP8 multiple myeloma cell line. Similarly, anti-EPHA2 ADCs were tested in the EPHA2-expressing PC3 prostate cancer cell line.

SF3b complex = biological target: T1, SF3b complex (Homo sapiens, UniProt O75533+Q7RTV0); experiment: SF3B1 binding / scintillation proximity assay (SPA)
T1 construct: The beads were suspended and added to the prepared nuclear extracts; endogenous in cells; host or cells: nuclear extracts
Method: A scintillation proximity assay was performed to measure the binding affinity of compounds (“payloads”) to the SF3b complex. Batch immobilization of anti-SF3B1 antibody (MBL) to anti-mouse PVT SPA scintillation beads (PerkinElmer) was prepared as follows: for every 2.5 mg of nuclear extracts, 5 μg of anti-SF3B1 antibody and 1.5 mg of beads were mixed in 150 μL PBS. The antibody-bead mixture was incubated for 30 min at RT and centrifuged at 18,000 g for 5 min. 150 μL PBS was used to resuspend every 1.5 mg antibody-bead mixture. The beads were suspended and added to the prepared nuclear extracts. The slurry was incubated for 2 hours at 4° C. with gentle mixing. The beads were then collected by centrifuging at 18,000 g for 5 min, and washed twice with PBS+0.1% Triton X-100. After a final centrifugation step, every 1.5 mg of beads was suspended with 150 μL of PBS. […] The mixture was incubated for 30 min, and luminescence signals were read using a MicroBeta2 Plate Counter (PerkinElmer). Prism 7 (Graphpad) was used for non-linear regression curve fitting of the data.

NCIH1650.1 = experiment: Payload cellular potency CTGlo-ATS 72 h, NCIH1650.1; assay type: cell-based; details: cell line #1, 72 h, corresponding free payload; for GI50: read-out: CTGlo-ATS GMean GI50 (nM) 72 h NCIH1650.1
MCF7 cells = experiment: Cell viability CellTiter-Glo, MCF7 (HER2-negative); assay type: cell-based; details: Homo sapiens, unconjugated payload of the ADC
Method: as §1, §2

HCC1954 cells = experiment: Cell viability CellTiter-Glo, HCC1954; details: Homo sapiens, HCC1954, read-out: Payload GI50 (nM)
[1] = Chemical stability of ADC payload, pH 5.5 buffer; assay type: physicochemical; details: for half-life at 20 μM: McIlvaine (citrate-phosphate) buffer, unconjugated payload, Citrate-Phosphate buffer pH 5.5, 37° C., read-out: Stability Mean Stability t1/2 pH5.5 (converted); for pH 5.5 Stability (t1/2, 37 C.): pH 5.5, 37 C., corresponding payload
Description: (Eppendorf ThermoMixer). […] Time 0 was set to 100.

Caco-2 cells = experiment: Caco-2 permeability of ADC payload; assay type: in vitro ADME; details: corresponding free payload
Method: (§4) Integrity of cell monolayer was confirmed by TEER (transepithelial electrical resistance) and Lucifer yellow. Payloads were spiked in duplicate at 10 NM, separately, on both sides of the cell monolayer. Permeability rates from the apical to basolateral (A-B) direction and the basolateral to apical (B-A) direction were determined by sampling aliquots from both chambers immediately after treatment (t=0) and following incubation for 2 hours. Samples were protein precipitated with organic solvent containing internal standard and analyzed by LC-MS/MS (SCIEX; API 5500). The area ratio responses of payload/internal standard over time in both directions were used to generate permeability (cm/sec) values.

[2] = Caco-2 permeability of ADC payload; assay type: in vitro ADME; details: human; for Papp B→A at 2 h, 10 NM: basolateral to apical, read-out: Permeability Mean Caco-2 B-A Perm (10e−G cm/s)
Method: as §4

THP1.1 = experiment: Payload cell potency and lethality CTGlo 72 h, THP1.1; assay type: cell-based; details: for GI50: read-out: CTGlo-ATS GMean GI50 (nM) 72 h THP1.1, cell line #3, 72 h, corresponding free payload; for CTGlo-AT S Mean Min-Response % 72 h THP1.1: unconjugated payload
NCIH1568.1 = experiment: Payload cellular potency CTGlo-ATS 72 h, NCIH1568.1; assay type: cell-based; details: cell line #2, 72 h, corresponding free payload; for GI50: read-out: CTGlo-ATS GMean GI50 (nM) 72 h NCIH1568.1
MOLP8 cells = experiment: Cell viability CellTiter-Glo, MOLP8 (CD138-expressing); assay type: cell-based; details: for GI50: Homo sapiens, MOLP-8, unconjugated payload of the ADC in the row, read-out: Payload GI50
Method: as §1, §3

Ad2.2 pre-mRNA = experiment: In vitro splicing (IVS) RT-qPCR, HeLa nuclear extract, Ad2.2; assay type: biochemical; details: biochemical splicing assay; corresponding free payload; read-out: qPCR-IVS-ATS GMean IC50 (nM) Ad2.2 HELA.2
Method: To evaluate payload activity in a cell-free system, an in vitro splicing assay was performed. The payloads were incubated with nuclear extracts and pre-mRNA substrate minigenes.
HeLa nuclear extract preparation: HeLa S3 cell pellets were resuspended in hypotonic buffer (10 mM HEPES pH 7.9, 1.5 mM MgCl2, 10 mM KCl, 0.2 mM PMSF, 0.5 mM DTT) and the suspension was brought up to a total of 5 packed cell volume (PCV). After centrifugation, the supernatant was discarded, and the cells were brought up to 3 PCV with hypotonic buffer and incubated on ice for 10 min. Cells were lysed using a dounce homogenizer and then centrifuged. […]. The nuclei were gently mixed for 30 min before centrifuging. The supernatant (nuclear extract) was then dialyzed into storage buffer (20 mM HEPES pH 7.9, 100 mM KCl, 0.2 mM EDTA, 20% glycerol, 0.2 mM PMSF, 0.5 mM DTT). Protein concentration was determined using NanoDrop 8000 UV-Vis spectrophotometer (ThermoFisher Scientific).
IVS: All Ad2-derived sequences (Pellizzoni et al. (1998) Cell 95(5):615-24) were cloned into pcDNA3.1(+) vector (Promega) using 5′ EcoRI and 3′ Xbal restriction sites. The plasmids were linearized using Xbal and used as DNA templates in in vitro transcription reactions. The FtzΔi intron-less plasmid (Luo and Reed (1999) 96(26):14937-42) was linearized using EcoRI. All RNAs were in vitro transcribed and then purified using MEGAScript T7 (Invitrogen) and MegaClear (Invitrogen) kits, respectively. For splicing reactions using Ad2 variant pre-mRNAs, 1 μL reactions were prepared using 8 μg nuclear extracts prepared from HeLa S3, 2 ng pre-mRNA, 0.2 ng FTZΔi, and varying concentrations of compounds or DMSO. After a 15 min pre-incubation at 30° C., 1 μL splicing activation buffer (0.5 mM ATP, 20 mM creatine phosphate, 1.6 mM MgCl2) was added, and the reactions were incubated for 90 min at 30° C. The reactions were then quenched with 13 μL DMSO, and 25 nL was used for RT-qPCR. RT-qPCR reactions were prepared using TaqMan RNA-to-CT 1-step kit (Life Technologies), RNA from splicing reactions, Ad2 (forward: […]; reverse: […]; probe: […]) and Ftz (forward: […]; reverse: […]; probe: […]) mRNA primer-probe sets. Prism 7 (Graphpad) was used for non-linear regression curve fitting of the formed spliced product and normalized to the control (DMSO) sample. […] In the presence of payload, a decrease in the amount of spliced product was observed.

[3] = unconjugated payload, [3H]-pladienolide B probe displacement, read-out: SPA-AT S GMean IC50 (nM) SF381 (WT) HELA.2
[4] = Caco-2, unconjugated payload, apical to basolateral, 2 hours, read-out: Permeability Mean Caco-2 A-B Perm (10e−6 cm/s)
[5] = Caco-2, unconjugated payload, 2 hours
[6] = Caco-2, A-B, corresponding payload (Table 26), read-out: Permeability Caco-2 A-B (10e−6 cm/s)

SMILES	GI50 (N87 cells) [nM]	Payload Rmin (%) (N87 cells)	GI50 (PC3 cells) [nM]	Payload Rmin (%) (PC3 cells)	IC50 (SF3b complex; [3]) [nM]	GI50 (MCF7 cells) [nM]	GI50 (HCC1954 cells) [nM]	half-life at 20 μM [1] [h]	Papp A→B at 2 h, 10 NM [2, 4] [×10⁻⁶ cm/s]	Papp B→A at 2 h, 10 NM [2, 5] [×10⁻⁶ cm/s]	CTGlo-AT S Mean Min-Response % 72 h THP1.1 (THP1.1) [%]	pH 5.5 Stability (t1/2, 37 C.) [1]	Papp A→B at 2 h, 10 NM [2, 6] [×10⁻⁶ cm/s]	also measured
CC[C@H](O)[C@@H](C)C1OC1C[C@@](C)(O)/C=C/C=C(\C)[C@H]1OC(=O)C[C@H](O)CC[C@@](C)(OC)[C@@H](OC(=O)N2CCNCC2)/C=C/[C@@H]1C (stereo in doubt) [D1, (2S,3S,6S,7R,10R,E)-10-hydroxy-2-((R,2E,4E)-6-hydroxy-7-((2S,3S)-3-((2R,3S)-3-hydroxypentan-2-yl)oxiran-2-yl)-6-methylhepta-2,4-dien-2-yl)-7-methoxy-3,7-dimethyl-12-oxooxacyclododec-4-en-6-yl piperazine-1-carboxylate]	7.04	−40.041	13.3	−71.987	6.08	17	1.85	94.8	0.14	2.05	−100.615	–	–	IC50 (SF3b complex; target binding, corresponding free payload, read-out: SPA-ATS GMean IC50 (nM) SF3B1 (WT) HELA.2): 6.08 nM; CTGlo-ATS GMean LD50 (nM) 72 h NCIH1650.1 (NCIH1650.1): >10000.00 nM; GI50 (NCIH1650.1): 12.1 nM; Perm. Mean Caco 2 A-B Perm (10e−6 cm/s) (Caco-2 cells): 0.14 10e−6 cm/s; Perm. Mean Caco 2 B-A Perm (10e−6 cm/s) (Caco-2 cells): 2.05 10e−6 cm/s; GI50 (THP1.1): 11.1 nM; CTGlo-ATS GMean LD50 (nM) 72 h NCIH1568.1 (NCIH1568.1): 65.737 nM; GI50 (NCIH1568.1): 7.36 nM
CC[C@H](O)[C@@H](C)C1OC1C[C@@](C)(O)/C=C/C=C(\C)[C@H]1OC(=O)C[C@H](O)CC[C@@](C)(OC(C)=O)[C@@H](OC(=O)N2CCNCC2)/C=C/[C@@H]1C (stereo in doubt) [D4, (2S,3S,6S,7R,10R,E)-7-acetoxy-10-hydroxy-2-((R,2E,4E)-6-hydroxy-7-((2S,3S)-3-((2R,3S)-3-hydroxypentan-2-yl)oxiran-2-yl)-6-methylhepta-2,4-dien-2-yl)-3,7-dimethyl-12-oxooxacyclododec-4-en-6-yl piperazine-1-carboxylate]	3.24	−81.775	11.1	−55.97	–	11.4	1.7	106	0.1	1.79	−99.957	4.5	0.1	CTGlo-ATS GMean LD50 (nM) 72 h NCIH1650.1 (NCIH1650.1): 1960.398 nM; GI50 (NCIH1650.1): 11.9 nM; Perm. Mean Caco 2 A-B Perm (10e−6 cm/s) (Caco-2 cells): 0.1 10e−6 cm/s; Perm. Mean Caco 2 B-A Perm (10e−6 cm/s) (Caco-2 cells): 1.79 10e−6 cm/s; GI50 (THP1.1): 10.9 nM; GI50 (MOLP8 cells): 1.15 nM; CTGlo-ATS GMean LD50 (nM) 72 h NCIH1568.1 (NCIH1568.1): 45.485 nM; GI50 (NCIH1568.1): 6.37 nM
CC[C@H](O)[C@@H](C)[C@H]1O[C@@H]1C[C@@](C)(O)/C=C/C=C(\C)[C@H]1OC(=O)C[C@H](O)CC[C@@](C)(OC)[C@@H](OC(=O)N2CCN(C)CC2)/C=C/[C@@H]1C [D2, (2S,3S,6S,7R,10R,E)-10-hydroxy-2-((R,2E,4E)-6-hydroxy-7-((2R,3R)-3-((2R,3S)-3-hydroxypentan-2-yl)oxiran-2-yl)-6-methylhepta-2,4-dien-2-yl)-7-methoxy-3,7-dimethyl-12-oxooxacyclododec-4-en-6-yl 4-methylpiperazine-1-carboxylate]	0.749	−72.706	2.39	−68.803	15.5	2.85	0.6	96	0.624	14.2	−100.218	4	0.6	GI50 (MOLP8 cells): 0.316 nM; Payload Rmin (%) (MOLP8 cells; unconjugated payload of the ADC): −100.198%
CC[C@H](O)[C@@H](C)[C@H]1O[C@@H]1C[C@@](C)(O)/C=C/C=C(\C)[C@H]1OC(=O)C[C@H](O)CC[C@@](C)(OC(C)=O)[C@@H](OC(=O)N2CCN(CCN)CC2)/C=C/[C@@H]1C [D3, (2S,3S,6S,7R,10R,E)-7-acetoxy-10-hydroxy-2-((R,2E,4E)-6-hydroxy-7-((2R,3R)-3-((2R,3S)-3-hydroxypentan-2-yl)oxiran-2-yl)-6-methylhepta-2,4-dien-2-yl)-3,7-dimethyl-12-oxooxacyclododec-4-en-6-yl 4-(2-aminoethyl)piperazine-1-carboxylate]	–	–	–	–	–	–	–	–	–	–	–	–	–	IC50 (Ad2.2 pre-mRNA): 10.9 nM
CC[C@H](O)[C@@H](C)[C@H]1O[C@@H]1C[C@@](C)(O)/C=C/C=C(\C)[C@H]1OC(=O)C[C@H](O)CC[C@@](C)(OC(C)=O)[C@@H](OC(=O)N2C[C@@H]3C[C@H]2CN3)/C=C/[C@@H]1C [D5, (2S,3S,6S,7R,10R,E)-7-acetoxy-10-hydroxy-2-((R,2E,4E)-6-hydroxy-7-((2R,3R)-3-((2R,3S)-3-hydroxypentan-2-yl)oxiran-2-yl)-6-methylhepta-2,4-dien-2-yl)-3,7-dimethyl-12-oxooxacyclododec-4-en-6-yl (1S,4S)-2,5-diazabicyclo[2.2.1]heptane-2-carboxylate]	–	–	–	–	–	–	–	–	–	–	–	–	–	IC50 (Ad2.2 pre-mRNA): 23.9 nM
CC[C@H](O)[C@@H](C)[C@H]1O[C@@H]1C[C@H](C)/C=C/C=C(\C)[C@H]1OC(=O)C[C@H](O)CC[C@@](C)(OC(C)=O)[C@@H](OC(=O)N2CCNCC2)/C=C/[C@@H]1C [D9]	–	–	–	–	–	–	–	< 24	1.15	16.1	−99.938	–	–	IC50 (SF3b complex): 2.18 nM
C/C(=C\c1cc(F)cc(N2CCOCC2)c1)[C@H]1OC(=O)C[C@H](O)CC[C@H](C)[C@@H](OC(=O)N2CCN(C)CC2)/C=C/[C@@H]1C [D17]	–	–	–	–	1.82	–	–	–	20.2	18.2	−99.033	7	20	–
